According to ChEMBL document CHEMBL3864179, “Development of 1H-Pyrazolo[3,4-b]pyridines as Metabotropic Glutamate Receptor 5 Positive Allosteric Modulators” (ACS Med Chem Lett, 2016):

Experiments:
[1] = Plasma concentration in C57Bl/6 mouse at 30 mg/kg, ip measured after 60 mins; type: ADME, organism-based
[2] = Ratio of drug level in brain to plasma in C57Bl/6 mouse at 30 mg/kg, ip; type: ADME, organism-based; conditions: read-out: BPR

concentration at 1 h [1]: 2800 nM
Kp [2]: 0.5
SMILES: N#Cc1c(-c2ccccc2)nc2[nH]nc(-c3ccc(Cl)c(C(F)(F)F)c3)c2c1C1CC1
